Data on 58 compounds can be found in ChEMBL document CHEMBL1146136, “Optimization of 2,4-diaminopyrimidines as GHS-R antagonists: side chain exploration” (Bioorg Med Chem Lett, 2006).

pIC50: −log10 of the molar value.

Test [1] concerns the target T1, Growth hormone secretagogue receptor type 1 (Homo sapiens, UniProt Q92847). Put plainly: Inhibition of human GHS receptor by binding assay.
For test [2], the target named is T1, Growth hormone secretagogue receptor type 1. Description: Inhibition of human GHS receptor by FLIPR. The class given is functional.
The target in test [3] is T2, Dihydrofolate reductase (Homo sapiens) (UniProt P00374).
T2 sequence (whole entry): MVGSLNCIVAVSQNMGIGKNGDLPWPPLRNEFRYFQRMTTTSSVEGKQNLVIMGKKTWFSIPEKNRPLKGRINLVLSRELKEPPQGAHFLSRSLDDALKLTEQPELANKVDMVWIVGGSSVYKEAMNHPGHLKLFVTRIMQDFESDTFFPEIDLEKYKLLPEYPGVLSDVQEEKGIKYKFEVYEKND
Put plainly: Inhibition of human DHFR receptor at 10 uM.

Test [4] has as its target T2, Dihydrofolate reductase (Homo sapiens). Put plainly: Inhibition of human DHFR receptor at 1 uM.
The target is the same in test [5]. Description: Inhibition of human DHFR receptor at 30 uM.

T1 sequence (Q92847 whole entry): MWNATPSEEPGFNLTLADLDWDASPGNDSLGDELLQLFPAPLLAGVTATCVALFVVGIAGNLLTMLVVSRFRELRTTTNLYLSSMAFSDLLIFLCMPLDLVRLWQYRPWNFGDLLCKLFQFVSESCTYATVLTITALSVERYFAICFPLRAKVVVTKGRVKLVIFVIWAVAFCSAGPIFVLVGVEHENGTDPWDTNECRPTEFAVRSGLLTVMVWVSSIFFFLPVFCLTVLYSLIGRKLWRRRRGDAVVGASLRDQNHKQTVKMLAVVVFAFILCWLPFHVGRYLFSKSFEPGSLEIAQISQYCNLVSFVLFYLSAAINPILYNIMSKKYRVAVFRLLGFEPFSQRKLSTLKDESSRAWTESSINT

On to `CCc1nc(N)nc(NCc2ccccc2)c1-c1ccc(NCc2ccc(S(C)(=O)=O)cc2)cc1`, for which the pIC50 in test [1] is 6.61; in test [2], 6.45.
For `CC(C)CCNCc1nc(N)nc(N)c1-c1ccc(NCc2ccc(S(C)(=O)=O)cc2)cc1`, in that order: 7.21 and 5.85.
With `CCc1nc(N)nc(N(CC)CC)c1-c1ccc(NCc2ccc(S(C)(=O)=O)cc2)cc1`, the pIC50 was 6.35 in test [1] and 6.42 in test [2].
As to `CS(=O)(=O)c1ccc(CNc2ccc(-c3c(N)nc(N)nc3COCc3ccco3)cc2)cc1`, the pIC50 is 8.57 in test [1] and 8.02 in test [2].
In turn, `CS(=O)(=O)c1ccc(CNc2ccc(-c3c(N)nc(N)nc3[C@@H]3CC4C=CC3C4)cc2)cc1` (stereo not given in full) had a negative logarithm of the IC50 (pIC50) in test [2] of 6.55. For the same compound, the inhibition in test [3] is 45%.
In the case of `CS(=O)(=O)c1ccc(CNc2ccc(-c3c(N)nc(N)nc3CN3CCc4ccccc4C3)cc2)cc1`, the inhibition is 29% in test [4] and 58% in test [3]. In addition, the pIC50 in test [2] is 7.39.
In the same order, the values of `CS(=O)(=O)c1ccc(CNc2ccc(-c3c(N)nc(N)nc3C3CCCCC3)cc2)cc1` are 16%, 50% and 7.44.
On to `CCCCCCCc1nc(N)nc(N)c1-c1ccc(NCc2ccc(S(C)(=O)=O)cc2)cc1`, for which the figures for the pIC50 in test [1] and in test [2] were 8.22 and 7.42, respectively.
For `CCCCc1nc(N)nc(N)c1-c1ccc(NCc2ccc(S(C)(=O)=O)cc2)cc1`, the pIC50 is 7.96 in test [1] and 7.49 in test [2].
In test [2], `CS(=O)(=O)c1ccc(CNc2ccc(-c3c(N)nc(N)nc3CN3Cc4ccccc4C3)cc2)cc1` gave a pIC50 of 7.47.
`CS(=O)(=O)c1ccc(CNc2ccc(-c3c(N)nc(N)nc3[C@@H]3CCCO3)cc2)cc1`: the figures for the inhibition in test [5] and in test [3] were 38% and 25%, respectively. The pIC50 in test [2] was 7.27.
Regarding `CCCCNc1nc(N)nc(CC)c1-c1ccc(NCc2ccc(S(C)(=O)=O)cc2)cc1`, the results for the pIC50 in test [1] and in test [2] were 6.56 and 6.13, respectively.
With `CCc1nc(N)nc(NC)c1-c1ccc(NCc2ccc(S(C)(=O)=O)cc2)cc1`, the pIC50 was 7.43 in test [1] and 7.16 in test [2]. Moreover, the inhibition in test [4] was found to be 41%; in test [3] it was 82%.
Regarding `CCCCCc1nc(N)nc(N)c1-c1ccc(NCc2ccc(S(C)(=O)=O)cc2)cc1`, the pIC50 was 7.72 in test [1] and 6.68 in test [2].
As for `CS(=O)(=O)c1ccc(CNc2ccc(-c3c(N)nc(N)nc3CCC(=O)NCc3cccc(Cl)c3)cc2)cc1`, the pIC50 is 8.70 in test [1] and 8.27 in test [2].
With `CS(=O)(=O)c1ccc(CNc2ccc(-c3c(N)nc(N)nc3C3CCC3)cc2)cc1`, in test [2], the pIC50 is 7.85.
As for `CC(C)c1nc(N)nc(N)c1-c1ccc(NCc2ccc(S(C)(=O)=O)cc2)cc1`, the figures for the pIC50 in test [1] and in test [2] were 8.27 and 7.85, respectively.
With `CCc1nc(N)nc(N2CCOCC2)c1-c1ccc(NCc2ccc(S(C)(=O)=O)cc2)cc1`, the results for the pIC50 in test [1] and in test [2] were 5.49 and less than 5.00, respectively.
For `CCc1nc(N)nc(NCCO)c1-c1ccc(NCc2ccc(S(C)(=O)=O)cc2)cc1`, the pIC50 was 6.45 in test [1] and 5.51 in test [2].
`CS(=O)(=O)c1ccc(CNc2ccc(-c3c(N)nc(N)nc3CN3CCc4ccccc43)cc2)cc1` gave a pIC50 in test [2] of 7.89.
For the compound `CS(=O)(=O)c1ccc(CNc2ccc(-c3c(N)nc(N)nc3COCc3ccccc3)cc2)cc1`, the pIC50 is 9.52 in test [1] and 8.15 in test [2].
Take `Cc1cc(C)cc(CNC(=O)CCc2nc(N)nc(N)c2-c2ccc(NCc3ccc(S(C)(=O)=O)cc3)cc2)c1`: the pIC50 was 9.40 in test [1] and 8.52 in test [2]. Moreover, the inhibition in test [4] was 82%; in test [3], 93%.
As for `CCc1nc(N)nc(NC2CC2)c1-c1ccc(NCc2ccc(S(C)(=O)=O)cc2)cc1`, the pIC50 in test [1] was 6.22; in test [2], less than 5.00.
Take `CCc1nc(N)nc(N)c1-c1ccc(NCc2ccc(S(C)(=O)=O)cc2)cc1`: the pIC50 is 8.01 in test [1] and 7.43 in test [2]. For the same compound, the inhibition in test [4] and in test [3] was more than 99% in each case.
Take `CS(=O)(=O)c1ccc(CNc2ccc(-c3c(N)nc(N)nc3C3CCCC3)cc2)cc1`: the values for the inhibition in test [4] and in test [3] were 73% and 97%, respectively. Besides, the pIC50 in test [2] was 7.68.
On to `CS(=O)(=O)c1ccc(CNc2ccc(-c3c(N)nc(N)nc3CNCC3CCCC3)cc2)cc1`, for which the pIC50 in test [1] is 7.80; in test [2], 6.50.
In the same order, the values of `CCc1nc(N)nc(Nc2ccccc2)c1-c1ccc(NCc2ccc(S(C)(=O)=O)cc2)cc1` are 6.15 and less than 5.00.
In the same order, the values of `CS(=O)(=O)c1ccc(CNc2ccc(-c3c(N)nc(N)nc3CNC3CCCC3)cc2)cc1` are 6.91 and 5.46.
For `COCc1nc(N)nc(N)c1-c1ccc(NCc2ccc(S(C)(=O)=O)cc2)cc1`, in that order: 8.12 and 7.28.
With `CS(=O)(=O)c1ccc(CNc2ccc(-c3c(N)nc(N)nc3CN)cc2)cc1`, the pIC50 in test [1] is 6.20; in test [2] it was 5.15.
For `CC(C)Cc1nc(N)nc(N)c1-c1ccc(NCc2ccc(S(C)(=O)=O)cc2)cc1`, in that order: 8.00 and 7.40.
As for `CS(=O)(=O)c1ccc(CNc2ccc(-c3c(N)nc(N)nc3CNCc3ccccc3)cc2)cc1`, the pIC50 is 7.02 in test [1] and 7.31 in test [2].
Consider `CNCc1nc(N)nc(N)c1-c1ccc(NCc2ccc(S(C)(=O)=O)cc2)cc1`, for which the pIC50 in test [1] is 6.55; in test [2], 5.86.
As to `CCCCCCc1nc(N)nc(N)c1-c1ccc(NCc2ccc(S(C)(=O)=O)cc2)cc1`, the values for the pIC50 in test [1] and in test [2] were 8.22 and 7.21, respectively.
As for `CCCCCCCCc1nc(N)nc(N)c1-c1ccc(NCc2ccc(S(C)(=O)=O)cc2)cc1`, the pIC50 in test [1] is 8.28; in test [2], 7.24.
For the compound `CS(=O)(=O)c1ccc(CNc2ccc(-c3c(N)nc(N)nc3C3COc4ccccc4O3)cc2)cc1` (stereo not given), the pIC50 in test [2] is 6.74.
Consider `CCc1nc(N)nc(N(C)C)c1-c1ccc(NCc2ccc(S(C)(=O)=O)cc2)cc1`, for which the pIC50 in test [1] was 6.72; in test [2], 6.11.
On to `CCOC(=O)CCc1nc(N)nc(N)c1-c1ccc(NCc2ccc(S(C)(=O)=O)cc2)cc1`, for which the pIC50 in test [2] is 7.09.
For `CS(=O)(=O)c1ccc(CNc2ccc(-c3c(N)nc(N)nc3C3CC3)cc2)cc1`, the pIC50 in test [2] was 7.72.
As for `CCCNc1nc(N)nc(CC)c1-c1ccc(NCc2ccc(S(C)(=O)=O)cc2)cc1`, the negative-log IC50 (pIC50) was 6.82 in test [1] and 6.63 in test [2].
For `CS(=O)(=O)c1ccc(CNc2ccc(-c3c(N)nc(N)nc3[C@H]3CCCO3)cc2)cc1`, the pIC50 in test [2] was 7.24. This compound returned an inhibition in test [3] of 84%.
For the compound `CS(=O)(=O)c1ccc(CNc2ccc(-c3c(N)nc(N)nc3CNc3ccccc3)cc2)cc1`, the pIC50 in test [1] was 8.26; in test [2] it was 8.04.
In the case of `Cc1ccc(COCc2nc(N)nc(N)c2-c2ccc(NCc3ccc(S(C)(=O)=O)cc3)cc2)o1`, the pIC50 in test [1] is 8.47; in test [2], 8.01.
In the same order, the values of `CC(C)=CCOCc1nc(N)nc(N)c1-c1ccc(NCc2ccc(S(C)(=O)=O)cc2)cc1` are 9.40 and 8.72.
With `CS(=O)(=O)c1ccc(CNc2ccc(-c3c(N)nc(N)nc3CNc3ccc(F)cc3)cc2)cc1`, the pIC50 is 8.82 in test [1] and 7.92 in test [2].
For `CC(C)CCOCc1nc(N)nc(N)c1-c1ccc(NCc2ccc(S(C)(=O)=O)cc2)cc1`, the pIC50 in test [1] was 8.55; in test [2] it was 8.17. For the same compound, the inhibition in test [4] was determined as 88%; in test [3] it was 97%.
With `CCc1nc(N)nc(NCC(C)C)c1-c1ccc(NCc2ccc(S(C)(=O)=O)cc2)cc1`, the values for the pIC50 in test [1] and in test [2] were 6.70 and 5.61, respectively.
For `CCNc1nc(N)nc(CC)c1-c1ccc(NCc2ccc(S(C)(=O)=O)cc2)cc1`, in that order: 6.61 and less than 5.00.
In the case of `CN(Cc1ccccc1)Cc1nc(N)nc(N)c1-c1ccc(NCc2ccc(S(C)(=O)=O)cc2)cc1`, the pIC50 is 8.40 in test [1] and 7.16 in test [2].
As to `CS(=O)(=O)c1ccc(CNc2ccc(-c3c(N)nc(N)nc3[C@H]3CC4C=CC3C4)cc2)cc1` (stereo not given in full), the inhibition in test [5] came out at 55%; in test [3], 38%. This compound also had a negative-log IC50 (pIC50) in test [2] of 7.18.
In the case of `CN(C)Cc1nc(N)nc(N)c1-c1ccc(NCc2ccc(S(C)(=O)=O)cc2)cc1`, the pIC50 in test [1] is 6.73; in test [2], 5.59.
In the same order, the values of `CS(=O)(=O)c1ccc(CNc2ccc(-c3c(N)nc(N)nc3CNC3CC3)cc2)cc1` are 7.19 and 6.02.
In test [2], `CN(Cc1nc(N)nc(N)c1-c1ccc(NCc2ccc(S(C)(=O)=O)cc2)cc1)c1ccc(F)cc1` had a pIC50 of 8.00.
As to `CS(=O)(=O)c1ccc(CNc2ccc(-c3c(N)nc(N)nc3COCc3cccnc3)cc2)cc1`, the results for the pIC50 in test [1] and in test [2] were 7.42 and 6.73, respectively.
In the case of `CS(=O)(=O)c1ccc(CNc2ccc(-c3c(N)nc(N)nc3C3Cc4ccccc4O3)cc2)cc1` (stereo not given), the pIC50 in test [2] is 7.42.
In the case of `CC(C)(C)c1nc(N)nc(N)c1-c1ccc(NCc2ccc(S(C)(=O)=O)cc2)cc1`, the inhibition in test [4] worked out at 47%; in test [3] it was 87%. The compound also gave a pIC50 in test [2] of 7.96.
With `CN(Cc1nc(N)nc(N)c1-c1ccc(NCc2ccc(S(C)(=O)=O)cc2)cc1)c1ccccc1`, the pIC50 in test [1] is 8.60; in test [2], 8.05. Moreover, the inhibition in test [4] is 42%; in test [3], 84%.
With `CS(=O)(=O)c1ccc(CNc2ccc(-c3c(N)nc(N)nc3C3CC4CCC3C4)cc2)cc1` (stereo not given), the inhibition in test [4] worked out at 3%; in test [3] it was 21%. For the same compound, in test [2], the pIC50 was 6.86.
